This is an account of results in ChEMBL document CHEMBL1201862, “PubChem BioAssay data set” (2004).

Test systems include COLO 205; UACC-62; SF-268; PC-3; SK-OV-3; T47D; MOLT-4; TK-10; SW-620; MDA-N; NCI-H460; HCT-116; OVCAR-8; K562; U-251; HT-29; RXF 393; SK-MEL-2; LOX IMVI; A498.
Common to all, as to experiment: NCI tumour cell line growth inhibition, 48 h

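The compound was tested at five concentrations on cells cultured in 96-well plates, with a 48-hour exposure period. GI50 = concentration required for 50% inhibition of growth.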 Active and inactive are the calls of the source. No stated cut-off is given here; in the data, active = GI50 up to about 1.1 µM and inactive = higher.

With `O=C(C/N=C(\CN(c1ccccc1)c1ccccc1)Oc1c(Cl)cc(Cl)cc1Cl)N1c2ccccc2Sc2ccccc21`, the GI50 was 34.8 µM (inactive) in the test on COLO 205; 4.61 µM (inactive) in the test on UACC-62; 81.7 µM (inactive) in the test on SF-268; 34 µM (inactive) with PC-3; 29.6 µM (inactive) in the test with SK-OV-3; 31.9 µM (inactive) with T47D. Besides, the GI50 in the test on MOLT-4 is 30.6 µM (inactive); in the test on TK-10, 43.9 µM (inactive); in the test with SW-620, 65 µM (inactive); in the test with MDA-N, 51.1 µM (inactive); in the test with NCI-H460, 56.4 µM (inactive); in the test on HCT-116, 34.9 µM (inactive). For the same molecule, the GI50 with OVCAR-8 is 35.4 µM (inactive); in the test with K562, > 10 µM (inactive); with U-251, 53.5 µM (inactive); in the test on HT-29, 43.3 µM (inactive); in the test on RXF 393 it was 0.101 µM (active).

With `Cc1cc2c3c([nH]c2c2ccnc(C)c12)CCCC3`, the GI50 with COLO 205 was 1.69 µM (inactive); with UACC-62 it was 1.77 µM (inactive); in the test with SF-268 it was 3.75 µM (inactive); with PC-3, 3.78 µM (inactive); with SK-OV-3, 1.85 µM (inactive); in the test with T47D, 2.15 µM (inactive). In addition, the GI50 in the test on MOLT-4 is 2.01 µM (inactive); in the test with SK-MEL-2 it was 1.62 µM (inactive); with TK-10, 2.33 µM (inactive); with SW-620 it was 1.91 µM (inactive); in the test with MDA-N, 1.78 µM (inactive); in the test with NCI-H460, 1.94 µM (inactive). In addition, the GI50 in the test on HCT-116 is 1.82 µM (inactive); with OVCAR-8 it was 2.18 µM (inactive); with K562, 2.07 µM (inactive); with U-251, 1.88 µM (inactive); in the test on HT-29, 2.46 µM (inactive); in the test on LOX IMVI, 1.96 µM (inactive).

With `Cc1cc(C)nc(NS(=O)(=O)c2ccc(Nc3nncc(=O)n3N)cc2)n1`, the GI50 in the test on COLO 205 is 35.4 µM (inactive); in the test on UACC-62 it was 19.8 µM (inactive); in the test with SF-268 it was 20.1 µM (inactive); in the test with PC-3 it was 21.5 µM (inactive); with SK-OV-3, 55.7 µM (inactive); with T47D, 16.3 µM (inactive). Besides, the GI50 was 15.5 µM (inactive) with MOLT-4; 59 µM (inactive) with SK-MEL-2; 16.2 µM (inactive) in the test with SW-620; 16 µM (inactive) in the test with MDA-N; 30.1 µM (inactive) in the test on NCI-H460; 28.2 µM (inactive) with HCT-116. The GI50 with OVCAR-8 was 15.4 µM (inactive); in the test on K562, 11.1 µM (inactive); with A498, 45.9 µM (inactive); in the test on U-251, 17.7 µM (inactive); in the test on HT-29 it was 16.9 µM (inactive); with LOX IMVI, 14.2 µM (inactive).

As to `CCSc1nc(-c2cccs2)nc2ccc(I)cc12`, the GI50 with COLO 205 was > 100 µM (inactive); in the test on UACC-62, > 100 µM (inactive); with SF-268, > 100 µM (inactive); in the test on PC-3, > 100 µM (inactive); in the test with T47D it was 1.5 µM (inactive); in the test with MOLT-4 it was > 100 µM (inactive). Besides, the GI50 in the test with SK-MEL-2 is > 100 µM (inactive); with TK-10, 39.6 µM (inactive); in the test with SW-620, > 100 µM (inactive); with MDA-N, > 100 µM (inactive); in the test on NCI-H460 it was > 100 µM (inactive); with HCT-116 it was > 100 µM (inactive). Also, the GI50 in the test with OVCAR-8, in the test with K562, with U-251, with HT-29, with LOX IMVI and with RXF 393 was > 100 µM (inactive) throughout.

`C=C1C(=O)O[C@H]2C1C[C@@H](OC(C)=O)/C(C)=C/CC[C@@]1(C)O[C@H]21` (stereo partly drawn): the GI50 is 3.7 µM (inactive) with COLO 205; 3.05 µM (inactive) with UACC-62; 15.3 µM (inactive) in the test on PC-3; 26.9 µM (inactive) in the test on SK-OV-3; 7.1 µM (inactive) in the test with T47D; 2 µM (inactive) in the test on MOLT-4. The GI50 in the test on SK-MEL-2 is 21.8 µM (inactive); with TK-10, 6.12 µM (inactive); in the test with SW-620, 4.47 µM (inactive); in the test on MDA-N it was 2.93 µM (inactive); in the test with NCI-H460, 33.3 µM (inactive); with HCT-116, 8.75 µM (inactive). In addition, the GI50 is 16.1 µM (inactive) in the test with OVCAR-8; 2.09 µM (inactive) with K562; 70.1 µM (inactive) in the test with U-251; 20.1 µM (inactive) in the test with HT-29; 0.817 µM (active) in the test on LOX IMVI; 6.53 µM (inactive) in the test with RXF 393.

As for `COc1ccc(C2OC2C(=O)C23CC4CC(CC(C4)C2)C3)cc1` (stereo not drawn), the GI50 in the test with UACC-62 is 10.4 µM (inactive); in the test on SF-268, 54.6 µM (inactive); in the test on PC-3, 31.9 µM (inactive); with T47D, 14.4 µM (inactive); with MOLT-4 it was 47.1 µM (inactive); in the test on TK-10 it was > 100 µM (inactive). The GI50 with SW-620 is > 100 µM (inactive); with MDA-N, 37.8 µM (inactive); with NCI-H460, 44.8 µM (inactive); with HCT-116, 58.6 µM (inactive); in the test on OVCAR-8, 38.3 µM (inactive); in the test on K562, 27.2 µM (inactive). Besides, the GI50 in the test with A498 is > 100 µM (inactive); with U-251 it was 36.1 µM (inactive); with HT-29, 13.4 µM (inactive); with LOX IMVI, 19.1 µM (inactive); in the test on RXF 393, 37.6 µM (inactive).

For `COc1ccc2c(c1O)-c1c(OC)c(OC)cc3c1[C@H](C2)[N+](C)(C)CC3`, the GI50 in the test on COLO 205, in the test with UACC-62, in the test with SF-268, with PC-3, in the test with SK-OV-3 and in the test on T47D was > 100 µM (inactive) each time. In addition, the GI50 with MOLT-4, in the test with SK-MEL-2, with TK-10, with SW-620, in the test with MDA-N and with NCI-H460 was > 100 µM (inactive) in each case. In addition, the GI50 with HCT-116 is > 100 µM (inactive); in the test with OVCAR-8, > 100 µM (inactive); with K562, 0.0409 µM (active); in the test on A498, > 100 µM (inactive); in the test with U-251, > 100 µM (inactive); in the test with HT-29, > 100 µM (inactive). In addition, the GI50 in the test on LOX IMVI is > 100 µM (inactive).

Regarding `CC1OC2OC3C(OCC(O)C3O)OC(=O)[C@]34CCC(C)(C)CC3C3=CCC5[C@@]6(C)C[C@H](O)[C@H](OC7OC(CO)C(O)C(O)C7OC7OC(COC(=O)CC(C)(O)CC(=O)OC1C(O)C2O)C(O)C(O)C7O)[C@@](C)(CO)C6CC[C@@]5(C)[C@]3(C)CC4` (stereo partly drawn), the GI50 in the test on COLO 205 was 1.52 µM (inactive); in the test with UACC-62 it was 1.56 µM (inactive); in the test on SF-268 it was 1.54 µM (inactive); with PC-3 it was 1.38 µM (inactive); in the test on SK-OV-3, 1.56 µM (inactive); with T47D it was 2.39 µM (inactive). Moreover, the GI50 in the test on MOLT-4 is 1.32 µM (inactive); with SK-MEL-2, 1.59 µM (inactive); in the test on TK-10, 1.61 µM (inactive); with SW-620, 1.16 µM (inactive); in the test with MDA-N it was 1.52 µM (inactive); in the test with NCI-H460, 1.8 µM (inactive). In addition, the GI50 in the test on HCT-116 is 1.63 µM (inactive); with OVCAR-8, 1.65 µM (inactive); in the test with U-251, 1.57 µM (inactive); in the test with HT-29 it was 1.69 µM (inactive); in the test with LOX IMVI it was 1.61 µM (inactive).

Take `COc1ccc2c(c1)N=C1CSC(c3cccc(Br)c3)N1C2` (stereo not drawn): the GI50 in the test with COLO 205 was 17.4 µM (inactive); in the test with UACC-62, 15.2 µM (inactive); in the test with SF-268, 28.9 µM (inactive); in the test on PC-3, 11.5 µM (inactive); in the test on SK-OV-3 it was 21.3 µM (inactive); in the test with T47D, 24 µM (inactive). In addition, the GI50 in the test with MOLT-4 is 2.99 µM (inactive); in the test on SK-MEL-2, 17.6 µM (inactive); in the test on TK-10, 16 µM (inactive); in the test on SW-620 it was 25.5 µM (inactive); in the test with MDA-N it was 11.5 µM (inactive); in the test on NCI-H460, 7.62 µM (inactive). In addition, the GI50 with HCT-116 was 10.8 µM (inactive); in the test on OVCAR-8, 23.7 µM (inactive); in the test with K562, 3.85 µM (inactive); in the test with U-251, 17.5 µM (inactive); in the test on HT-29 it was 14.8 µM (inactive); in the test with LOX IMVI, 18.5 µM (inactive). For the same molecule, in the test on RXF 393, the GI50 was 14.6 µM (inactive).

As to `NS(=O)(=O)c1ccc(Nc2c3ccccc3nc3c(C(=O)NCCCN(CCO)CCO)cccc23)cc1`, the GI50 with COLO 205 is 13 µM (inactive); in the test with UACC-62, 17.9 µM (inactive); with SF-268 it was 21.8 µM (inactive); in the test with PC-3, 34.2 µM (inactive); with SK-OV-3 it was 27.2 µM (inactive); in the test on T47D it was 15.8 µM (inactive). The GI50 was 4.86 µM (inactive) in the test with MOLT-4; 20.1 µM (inactive) in the test on SK-MEL-2; 36.6 µM (inactive) in the test on TK-10; 21.5 µM (inactive) with SW-620; 19.8 µM (inactive) in the test with MDA-N; 15.7 µM (inactive) in the test on NCI-H460. The GI50 in the test on OVCAR-8 was 28.6 µM (inactive); in the test with K562, 18.7 µM (inactive); in the test on A498 it was 47.9 µM (inactive); in the test on U-251, 13.9 µM (inactive); in the test on HT-29 it was 25.6 µM (inactive); in the test with LOX IMVI, 18.8 µM (inactive).

With `C=CCOC(=O)C[C@H](NC(=O)[C@H](Cc1ccc(O)cc1)NCC(F)(F)F)C(=O)OCC=C`, the GI50 is 31.8 µM (inactive) in the test with COLO 205; 40.7 µM (inactive) in the test on UACC-62; 37.7 µM (inactive) in the test on SF-268; 77.8 µM (inactive) in the test with PC-3; > 100 µM (inactive) in the test with SK-OV-3; 23.6 µM (inactive) in the test on T47D. Further, the GI50 in the test on MOLT-4 is 25.1 µM (inactive); in the test with SK-MEL-2 it was 21.3 µM (inactive); in the test with TK-10, > 100 µM (inactive); with SW-620, 54.3 µM (inactive); with MDA-N, 35.3 µM (inactive); in the test with NCI-H460, 59.6 µM (inactive). Further, the GI50 was > 100 µM (inactive) with HCT-116; > 100 µM (inactive) in the test with OVCAR-8; 39.2 µM (inactive) in the test on K562; > 100 µM (inactive) in the test on U-251; > 100 µM (inactive) in the test with HT-29; 65.5 µM (inactive) in the test on LOX IMVI. Besides, the GI50 with RXF 393 was > 100 µM (inactive).
